How the values were obtained:
Type in all cases: physicochemical
[1] = Solubility in water; conditions: pH 7.5, water
[2] = Water content by coulometric titration
Experimental: The water content of crystalline Form M of Compound A obtained according to any one of the processes of Examples 1 to 6 was determined by coulometric titration using a Metrohm Coulometer composed of a 774 oven sample processor, a 774 SC controller, 831 KF coulometer and a 846 Dosing interface with Tiamo 1.2 software About 10 mg of accurately weighed micronized drug substance were introduced in vials heated for 10 minutes at 140° C. The water content of the powder was also determined by the coulometric method.

[3] = Stability studies of crystalline Form A (storage, post-storage HPLC); conditions: for (i) Polymorphic stability / (ii) chemical stability, drug substance content determined by LC: polyethylene bag in sealed quadruple laminated foil bag
From the text: For all storage conditions and storage periods, 1.2 g of crystalline Form A of Compound A obtained according to the process of Example 15 were introduced in a specific packaging for post-storage HPLC analysis.

[4] = Hygroscopicity by dynamic vapor sorption (DVS)
Experimental: The hygroscopicity of crystalline Form M of Compound A obtained according to any one of the processes of Examples 1 to 6 was assessed using the dynamic vapor sorption (DVS) technique. 5 to 10 mg of the drug substance test sample were accurately weighed into a DVS sample pan working at 25° C. under controlled humidity. The mass of the sample was recorded at 50% RH (relative humidity) until reaching a stable value. Thereafter the mass variation was recorded between 50% RH and 90% RH at a rate of 10% per hour. Mass variations were also recorded between 90% RH and 0% RH and from 0% RH back to 50% RH. The relative humidity was maintained constant when it reached either 0 or 90% RH until the mass variation was less than 0.002% per minute within a limit of lime of 15 hours. An increase in sample mass of approximately 0.4% was recorded by DVS analysis when a sample was exposed to relative humidities from 50% to 90% at 25° C.

[5] = Stability studies of crystalline Form M (storage, XRPD and post-storage HPLC); conditions: for stability towards temperature and humidity: 6-month storage period under various conditions
Experimental: For all storage conditions and storage periods, 20 mg of crystalline Form M of Compound A obtained according to any one of the processes of Examples 1 to 6 were introduced in a 30-mL vial for post-storage HPLC analysis (packaging: PVO=Opened glass container; VRAC PA=Double polyethylene bag).

[6] = 25° C./60% RH, 24 months of storage
[7] = 30° C./75% RH, 1 month of storage
[8] = 40° C./75% RH, 6 months of storage
[9] = 50° C./75% RH, 1 month of storage
[10] = 25° C. 60% RH, VRAC PA, 12 months
[11] = 30° C. 65% RH, VRAC PA, 12 months
[12] = 40° C. 75% RH, VRAC PA, 3 months
[13] = 40° C. 75% RH, VRAC PA, 6 months

SMILES: COc1ccccc1-c1nccc(COc2ccccc2CC(Oc2ncnc3sc(-c4ccc(F)cc4)c(-c4ccc(OCCN5CCN(C)CC5)c(Cl)c4C)c23)C(=O)O)n1 [Compound A, (2R)-2-{[(5Sa)-5-{3-chloro-2-methyl-4-[2-(4-methylpiperazin-1-yl)ethoxy]phenyl}-6-(4-fluorophenyl)thieno[2,3-d]pyrimidin-4-yl]oxy}-3-(2-{[2-(2-methoxyphenyl)pyrimidin-4-yl]methoxy}phenyl)propanoic acid]
- solubility [1]: < 1 µg/mL

SMILES: COc1ccccc1-c1nccc(COc2ccccc2CC(Oc2ncnc3sc(-c4ccc(F)cc4)c(-c4ccc(OCCN5CCN(C)CC5)c(Cl)c4C)c23)C(=O)O)n1 (centres unmarked) [Form MH, 2-{[5-{3-Chloro-2-methyl-4-[2-(4-methylpiperazin-1-yl)ethoxy]phenyl}-6-(4-fluorophenyl)thieno[2,3-d]pyrimidin-4-yl]oxy}-3-(2-{[2-(2-methoxyphenyl)pyrimidin-4-yl]methoxy}phenyl)propanoic acid]
- water content ([2]; coulometric method, powder after maturation in water): 29.3%

SMILES: COc1ccccc1-c1nccc(COc2ccccc2CC(Oc2ncnc3sc(-c4ccc(F)cc4)c(-c4ccc(OCCN5CCN(C)CC5)c(Cl)c4C)c23)C(=O)O)n1 (centres unmarked) [crystalline Form A of Compound A, 2-{[5-{3-Chloro-2-methyl-4-[2-(4-methylpiperazin-1-yl)ethoxy]phenyl}-6-(4-fluorophenyl)thieno[2,3-d]pyrimidin-4-yl]oxy}-3-(2-{[2-(2-methoxyphenyl)pyrimidin-4-yl]methoxy}phenyl)propanoic acid]
- stability on storage ([3]; 24-month storage period under 25° C./60% RH): remains stable
- (i) Polymorphic stability [3, 6]: (i) Form A
- (ii) chemical stability, drug substance content determined by LC [3, 6]: (ii) 98.8% after % m/m
- (i) Polymorphic stability [3, 7]: (i) Form A
- (ii) chemical stability, drug substance content determined by LC [3, 7]: (ii) 99.3% after % m/m
- (i) Polymorphic stability [3, 8]: (i) Form A
- (ii) chemical stability, drug substance content determined by LC [3, 8]: (ii) 99.5% after % m/m
- (i) Polymorphic stability [3, 9]: (i) Form A
- (ii) chemical stability, drug substance content determined by LC [3, 9]: (ii) 99.3% after % m/m
- stability towards temperature and humidity ([3]; several months storage period under more severe conditions): still remains stable

SMILES: COc1ccccc1-c1nccc(COc2ccccc2CC(Oc2ncnc3sc(-c4ccc(F)cc4)c(-c4ccc(OCCN5CCN(C)CC5)c(Cl)c4C)c23)C(=O)O)n1 (centres unmarked) [crystalline Form M of Compound A, 2-{[5-{3-chloro-2-methyl-4-[2-(4-methylpiperazin-1-yl)ethoxy]phenyl}-6-(4-fluorophenyl)thieno[2,3-d]pyrimidin-4-yl]oxy}-3-(2-{[2-(2-methoxyphenyl)pyrimidin-4-yl]methoxy}phenyl)propanoic acid]
- hygroscopicity according to the European Pharmacopoeia [4]: slightly hygroscopic
- change to the crystalline form in X-ray powder diffractogram after water sorption/desorption/sorption cycle ([4]; DVS cycle 50-90-0-50% RH): no change
- increase in sample mass (DVS) ([4]; between 0% to 50% RH, 25° C.): approximately 0.1%
- decrease in sample mass (DVS) ([4]; between 90% to 0% RH, 25° C.): approximately 0.5%
- increase in sample mass (DVS) ([4]; relative humidities from 50% to 90% at 25° C.): approximately 0.4%
- stability towards temperature and humidity [5]: very stable
- stability towards temperature and humidity ([5]; listed as Crystalline Form M of Compound A): remains stable
- stability on storage ([5]; 12-month storage period under 25° C./60% RH or 30° C./65% RH): remains stable
- (ii) chemical stability, drug substance content determined by LC ([5]; 25° C. 60% RH, VRAC PA, 3 months): (ii) 100.0% m/m
- (ii) chemical stability, drug substance content determined by LC ([5]; 25° C. 60% RH, VRAC PA, 6 months): (ii) 99.7% m/m
- (i) Polymorphic stability [5, 10]: (i) Form M
- (ii) chemical stability, drug substance content determined by LC [5, 10]: (ii) 98.9% m/m
- (i) Polymorphic stability ([5]; 25° C. 90% RH, PVO, 3 months): (i) Form M
- (ii) chemical stability, drug substance content determined by LC ([5]; 25° C. 90% RH, PVO, 3 months): (ii) 99.7% m/m
- (i) Polymorphic stability ([5]; 25° C. 90% RH, PVO, 6 weeks): (i) Form M
- (ii) chemical stability, drug substance content determined by LC ([5]; 25° C. 90% RH, PVO, 6 weeks): (ii) 100.0% m/m
- (ii) chemical stability, drug substance content determined by LC ([5]; 30° C. 65% RH, VRAC PA, 3 months): (ii) 99.6% m/m
- (ii) chemical stability, drug substance content determined by LC ([5]; 30° C. 65% RH, VRAC PA, 6 months): (ii) 100.0% m/m
- (i) Polymorphic stability [5, 11]: (i) Form M
- (ii) chemical stability, drug substance content determined by LC [5, 11]: (ii) 98.8% m/m
- (i) Polymorphic stability [5, 12]: (i) Form M
- (ii) chemical stability, drug substance content determined by LC [5, 12]: (ii) 99.9% m/m
- (i) Polymorphic stability [5, 13]: (i) Form M
- (ii) chemical stability, drug substance content determined by LC [5, 13]: (ii) 100.0% m/m
- (i) Polymorphic stability ([5]; 50° C. 75% RH, PVO, 3 months): (i) Form M
- (ii) chemical stability, drug substance content determined by LC ([5]; 50° C. 75% RH, PVO, 3 months): (ii) 100.1% m/m
- (i) Polymorphic stability ([5]; 50° C. 75% RH, PVO, 6 weeks): (i) Form M
- (ii) chemical stability, drug substance content determined by LC ([5]; 50° C. 75% RH, PVO, 6 weeks): (ii) 100.2% m/m
- water content ([2]; vials heated for 10 minutes at 140° C.): 0.1 % in weight

From patent publication US12129261B2, “Crystalline forms of a MCL-1 inhibitor, a process for their preparation and pharmaceutical compositions containing them” (LES LABORATOIRES SERVIER, priority 2018, dated 2024)
